The source of these data is ChEMBL document CHEMBL1201862, “PubChem BioAssay data set” (2004).

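Cultured in 96-well plates, cells were exposed to test compound for 48 hours across five concentrations. Abbreviation: GI50, concentration required for 50% inhibition of growth.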 Activity calls are given as the source filed them. No stated cut-off is given here; in the data, active = GI50 up to about 1.1 µM and inactive = higher.

Test systems include MOLT-4; SNB-19; KM12; HOP-92; CAKI-1; HCT-15; NCI-H23; SF-268; NCI-H226; HCT-116; SW-620; 786-0; OVCAR-4; OVCAR-3; IGROV-1.
What all share (assay): NCI-60 cell line screen, 48 h

Regarding `Cc1c(C(=O)CC(=O)C(=O)Nc2cc(Cl)ccc2Cl)[n+]([O-])c2ccccc2[n+]1[O-]`, the GI50 in the test with MOLT-4 is 26.6 µM (inactive); in the test on SNB-19, 45.5 µM (inactive); in the test on KM12 it was 37.3 µM (inactive); in the test on HOP-92, > 100 µM (inactive); in the test on CAKI-1, > 100 µM (inactive); with HCT-15, 29 µM. Further, the GI50 in the test with NCI-H23 is 21.5 µM (inactive); in the test on SF-268, 33.4 µM (inactive); in the test with NCI-H226, > 100 µM (inactive); in the test with HCT-116 it was 35.4 µM (inactive); in the test on SW-620, 36 µM (inactive); in the test with 786-0, 61.5 µM (inactive). Further, the GI50 in the test on OVCAR-4 is 46.1 µM (inactive); in the test with OVCAR-3, 19.9 µM (inactive); in the test with IGROV-1 it was 36.9 µM (inactive).
Turning to `Nc1c(S(=O)(=O)c2ccccc2)c2nc3ccccc3nc2n2c1nc1ccccc12`, the GI50 with MOLT-4 was > 29.4 µM (inactive); in the test on SNB-19 it was > 51.8 µM (inactive); with KM12 it was > 64 µM (inactive); with HOP-92 it was > 100 µM (inactive); in the test with CAKI-1, > 54.1 µM (inactive); with HCT-15 it was 36.1 µM. Further, the GI50 is 19.4 µM (inactive) in the test with NCI-H23; > 45.3 µM (inactive) with SF-268; 37.5 µM (inactive) with NCI-H226; 56.2 µM (inactive) with HCT-116; > 68.2 µM (inactive) with SW-620; 8.09 µM (inactive) with 786-0. Also, the GI50 in the test with OVCAR-4 is 19.8 µM (inactive); with OVCAR-3, > 25.4 µM (inactive); with IGROV-1, > 57.3 µM (inactive).
`COc1cc2cc3c4c(cc(OC)c(OC)c4c2cc1OC)CCN3`: the GI50 with MOLT-4 is 35.3 µM (inactive); in the test with SNB-19, > 100 µM (inactive); with KM12, 31.6 µM (inactive); in the test on HOP-92 it was 20.8 µM (inactive); in the test on CAKI-1, 67.1 µM (inactive); in the test on HCT-15 it was 32.9 µM. Moreover, the GI50 was 92 µM (inactive) in the test on NCI-H23; 34 µM (inactive) in the test with SF-268; > 100 µM (inactive) with NCI-H226; 36.6 µM (inactive) in the test on HCT-116; 21.1 µM (inactive) with SW-620; 48.4 µM (inactive) with 786-0. Also, the GI50 in the test on OVCAR-4 was 33.7 µM (inactive); with OVCAR-3, 27.2 µM (inactive); in the test on IGROV-1, > 100 µM (inactive).
For `CN(C)C(=S)OC(Cn1cncn1)c1ccc(Cl)cc1Cl` (stereo not given), the GI50 with MOLT-4 was > 100 µM (inactive); in the test with SNB-19, > 100 µM (inactive); in the test on KM12 it was > 100 µM (inactive); in the test on HOP-92, 72.8 µM (inactive); in the test on CAKI-1, > 100 µM (inactive); in the test with HCT-15, more than 100 µM. Also, the GI50 with NCI-H23, with SF-268, in the test on NCI-H226, in the test on HCT-116, with SW-620 and in the test on 786-0 was > 100 µM (inactive) each time. Further, the GI50 in the test on OVCAR-4, with OVCAR-3 and in the test with IGROV-1 was > 100 µM (inactive) in each case.
As for `O=C(O)C[C@@H](Cl)[C@H](NC(=O)OCc1ccccc1)C(=O)O`, the GI50 in the test with MOLT-4 was > 100 µM (inactive); in the test on SNB-19, > 100 µM (inactive); in the test with KM12, > 100 µM (inactive); in the test with HOP-92 it was > 100 µM (inactive); in the test with CAKI-1, > 100 µM (inactive); in the test with HCT-15, more than 100 µM. Further, the GI50 with NCI-H23, in the test with SF-268, with NCI-H226, in the test with HCT-116, in the test with SW-620 and in the test with 786-0 was > 100 µM (inactive) in each case. For the same molecule, the GI50 with OVCAR-4, with OVCAR-3 and in the test on IGROV-1 was > 100 µM (inactive) each time.
